Source: patent publication US6723702B2, “Use of relaxin treat diseases related to vasoconstriction” (RAS Medical, Inc., priority 2000, dated 2004)

Legend:
rats = assay: Metabolic cage studies; assay type: in vivo, rat
Protocol: Six rats were individually housed in Nalgene metabolism cages (Rodent Metabolism Cages for 150-300 g rats, VWR Scientific). Water and food were provided ad libidum. After 5-7 days of habituation, two baseline 24-hour urine collections were obtained. Then, an osmotic minipump containing purified porcine RLX was implanted (4 μg/hour). […] Food and water intake, as well as urinary flow rate were measured by gravimetric technique. The urinary excretion of sodium, cyclic guanosine monophosphate, and NOx were also determined. The measurements made during the two baseline collections were averaged, as were the measurements made during the three post-relaxin collections.
Plasma osmolality was measured using a freezing-point depression instrumentation osmometer (Model 3MO, Advanced Instruments, Needham Heights, Mass.). Plasma and urine IN and PAH were assayed by standard techniques. Urinary sodium concentration was measured by ion selective electrode (Sodium-Potassium Chemistry Module, Beckman Instruments, Inc., Brea, Calif.). Urinary cGMP was determined by specific radioimmunoassay as previously described. Conrad and Vernier (1989) Am. J. Physiol. 257:R847-R853. Urinary NOX was measured by reduction of nitrate to nitrite, the latter determined by the Griess reaction which produces a calorimetric product measured at 540 nm (Nitrate/Nitrite Colorimetric Assay Kit, Cayman Chemical, Ann Arbor, Mich.).

[1] = Serum rhRLX, quantitative sandwich immunoassay (Example 1); assay type: in vivo, rat; details: osmotic minipump 4 μg/hour for 5 days, 17 rats, mean±SEM
Protocol: One milliliter of blood was obtained from the rats administered rhRLX for 5 days at the end of the renal function measurements. The levels of rhRLX in serum were then measured in a quantitative sandwich immunoassay. Unemori et al. (1996) J. Clin. Invest. 98:2739-2745. Briefly, wells of a 96-well microtiter plate (Maxisorp Immunomodules, Nunc, Inc., Naperville, Ill.) were coated overnight with affinity purified anti-rhRLX rabbit polyclonal antibody. Sera were diluted in phosphate buffered saline containing Tween 20, Thimerosal, bovine serum albumin (Sigma Chemical Co., St. Louis, Mo.) and normal goat IgG (Organon Teknika-Cappel, Durham, N.C.), and 100 μl were added to wells in duplicate. […] After an appropriate incubation period at room temperature, the wells were washed again, and 100 μl of a tetramethylbenzidine solution was added to each well. After color development, the reaction was stopped, absorbances at 450/630 nm were measured, and relaxin concentrations in the sera were determined by entering data into a four-parameter logistic curve-fitting program.

THP-1 cells = assay: THP-1 cells: VEGF and bFGF mRNA induction; assay type: cell-based, human; details: 100 ng/ml for 3 hours (FIG. 9)
Protocol: Sense and anti-sense primers for use with the real time RT-PCR, ABI Prism 7700 Sequence Detection System were designed using the PrimerExpress version 1.0 software (PE Applied Biosystems, Inc.). Rat and human specific primer/probe sets included those for GAPDH, bFGF, the VEGF 164 aa or 120 aa rat isoforms, and their respective human homologues (VEGF 165 and VEGF 121). ABI PRISM specific primer/probes were purchased from BioSource International Inc. or PE Applied Biosystems.
RT-PCR was performed on 150 ng for the analysis of VEGF and bFGF mRNA expression. Ten nanograms of total RNA was used for GAPDH niRNA expression. […] Data were analyzed using Sequence Detector v1.6.3 software (Applied Biosystems/PE). […]
Because macrophages are the inflammatory cells predominantly responsible for the angiogenic response that occurs during healing, a monocyte/macrophage cell line shown previously to bind relaxin with high affinity (THP-1) (Parsell et al. (1996) J. Biol. Chem. 271:27936-27941) was tested for relaxin inducibility of VEGF and bFGF. […] In order to determine whether the increase in VEGF mRNA observed following short-term relaxin treatment was reflected by an elevation in secreted VEGF protein, THP-1 cells were treated with relaxin (0.01-100 ng/ml) for 24 h, the conditioned media collected, and VEGF content in the media quantified by ELISA. […]

[2] = system: human primary umbilical vein, aortic, foreskin, and pulmonary endothelial cells; assay: 3H-thymidine uptake, human endothelial cells; assay type: cell-based; details: serum-free medium
Protocol: Endothelial cells were derived from explant cultures of human neonatal foreskin and rat aorta. Primary human endothelial cells from umbilical vein, aorta, and lung were purchased from Clonetics-BioWhittaker Corporation (San Diego, Calif.) and cultured according to vendor instructions. ^3H-thymidine uptake was performed, as previously described, in serum-free medium. Unemori et al. (1994) Exp. Cell Res. 21:166-171.
Relaxin was then assayed for the ability to induce proliferation of endothelial cells directly. Relaxin's potential mitogenic effect was tested on human primary umbilical vein, aortic, foreskin, and pulmonary endothelial cells, as well as rat aortic endothelial cells. […] Alterations in other aspects of endothelial cell phenotype that are believed to correlate with angiogenesis were also tested. Relaxin had no effect on collagen expression, judged by SDS-PAGE of ^3H-proline-labeled cellular proteins; or metalloproteinase or tissue inhibitor of metalloproteinase-1 secretion, assessed by gelatin zymography. […] Therefore, relaxin had no apparent effect directly on endothelial cells.

## Porcine RLX: lyophilized, purified porcine relaxin (Sherwood and O'Byrne 1974), dissolved in Ringer's solution
rats; Baseline
  Food intake: 13.2 ± 1.0 g
  Urinary NOx excretion: 4.8 ± 0.5 μmole/24hours
  Urinary cGMP excretion: 32.2 ± 1.9 nmole/24 hours
  Urinay sodium excretion: 438.8 ± 34.4 μEq/24hours
  Urine output: 9.1 ± 1.7 ml/24 hours
  Water intake: 19.1 ± 2.7 mL
rats; Day 2 of RLX 4 μg/hour s.c.
  Food intake: 15.5 ± 1.5 g
  Urinary NOx excretion: 6.0 ± 1.0 μmole/24hours
  Urinary cGMP excretion: 26.5 ± 2.5 nmole/24 hours
  Urinay sodium excretion: 800.2 ± 77.2 μEq/24hours
  Urine output: 11.4 ± 2.2 ml/24 hours
  Water intake: 20.1 ± 3.4 mL
rats; Day 5 of RLX 4 μg/hour s.c.
  Food intake: 16.7 ± 1.0 g
  Urinary NOx excretion: 5.9 ± 0.7 μmole/24hours
  Urinary cGMP excretion: 28.6 ± 3.8 nmole/24 hours
  Urinay sodium excretion: 477.8 ± 57.9 μEq/24hours
  Urine output: 8.8 ± 0.9 ml/24 hours
  Water intake: 23.6 ± 3.3 mL
rats; Post-relaxin day 4-18
  Food intake: 15.3 ± 0.5 g
  Urinary NOx excretion: 6.1 ± 0.9 μmole/24hours
  Urinary cGMP excretion: 32.7 ± 3.8 nmole/24 hours
  Urinay sodium excretion: 480.69 ± 54.4 μEq/24hours
  Urine output: 9.1 ± 1.1 ml/24 hours
  Water intake: 19.1 ± 2.6 mL

## rhRLX: recombinant human relaxin, identical in amino acid sequence to the product of the human H2 gene; A chain of 24, B chain of 29 amino acids
[1]
  serum concentration of rhRLX: 28.1 ± 4.8 ng/mL
THP-1 cells
  Transcripts for VEGF: specifically upregulated
[2]
  3H-thymidine uptake: did not alter
